Assay results from patent US8334267B2, “Mangiferin calcium salts, the method for its preparation and its use” (Hainan Deze Drug Research Co., Ltd., priority 2007, dated 2012).
Counter-ions that a name gives are not always drawn.

Experiments:
[1] = Water solubility test in distilled water
Experimental: 5 mg mangiferin powder which is weighed up accurately is put into 50 ml distilled water, the solution is shaked acutely 30 second every 5 minutes.
100 mg mangiferin calcium powder which is obtained by the method for preparation of example 8 and weighed up accurately is put into 50 ml distilled water, the solution is shaked acutely 30 second every 5 minutes.

[2] = Pharmacokinetics of mangiferin and mangiferin calcium after oral administration; type: in vivo, rats
Experimental: 1, The Confect of Drug Solution
Mangiferin is suspended in Carboxymethyl cellulose sodium solution which concentration is one percent; the mangiferin concentration is 10 mg/mL, which is sample A.
All rats were fasted for 16 hours, free drinking water. The rats are oral administrated separately sample A and sample B, which dose is 100 mg/kg. The rats were taken whole blood in 5 minutes before oral administrated and 15 min, 30 min, 45 min, 60 min, 90 min, 120 min, 180 min, 240 min, 300 min, 360 min, 480 min after oral administrated. Serum is separated from these blood samples.
Serum Samples are extracted accurately 0.2 ml into centrifuge tubes separately; then 40 μL cold trichloroacetic acid solution which concentration is ten percent is added into centrifuge tubes separately. The samples are whorled 3 minutes; then centrifuged 12000 r/min for 10 minutes, 120 μl the up layer solution are extracted from centrifuge tubes and put into sample bottles separately. All the samples are detected by HPLC.
Apparatus: Angilent 1100 HPLC (American Agilent Co.), include G1312A dual pump G1313A Auto-Sampler.
Chromatographic column: discover ODS column (250 mm×6 mm, 5 μm);
The mobile phase: Acetonitrile—0.1% H3PO4 water (13:87 v/v)
Velocity of flow: 1.0 ml/min
Detection Wavelength: 254 nm.
Column temperature: 30° C.

GK rats = assay: Efficacy in GK model (plasma glucose, insulin, lipids); type: in vivo, Goto-Kakizaki rats (GK)
Experimental: Rosiglitazone Hydrochloride tablets were purchased from Zhejiang wanma pharmaceutical Co., Ltd. Mangiferin and mangiferin calcium were suspended with 3% sodium carboxymethyl cellulose before use.
Goto-Kakizaki rats (GK) (16 weeks age, ♀ ♂) were purchased from Shanghai SLAC laboratory animal Co., Ltd. The animals were kept in IVC cages with temperature (22° C.). There are two rats in each cage.
Experimental group: GK rats group (n=10); mangiferin groups (20, 40, 80 mg/kg, each 10 rats); mangiferin calcium groups (10, 20, 40 mg/kg, each 10 rats); Rosiglitazone Hydrochloride group [3 mg/kg, n=10]. Test samples or vehicle control was given orally for 30 days. GK rats group were given vehicle.
The blood specimens were taken by abdominal aorta at the end of the test. Plasma glucose (GLU), insulin (INS), triglycerides (TG), total cholesterol (TC), high density lipoprotein (HDL), low density lipoprotein (LDL) were determined
(§1) GLU, TC, TG, HDL and LDL levels were determined using GF-D800 semi-auto chemist which was purchased from Shandong Gaomi Caihong Analytical Instrument Co., Ltd. Insulin: radioimmunoassay (RIA), γ counter counts. insulin RIA Kit was purchased from Shandong Weifang City three-dimensional (3V) Biological company.
Statistics: The results have been calculated as mean±SD ( x±SD) and comparisons of the data have been done by t-test.

STZ rats = assay: Efficacy in STZ model (plasma glucose, insulin, lipids, glucose clamp); type: in vivo, wistar rats; settings: for Glucose infusion rate: glucose clamp; for FFA / GLU / INS / TG: high fat chow
Experimental: Rosiglitazone Hydrochloride tablets were purchased from Zhejiang wanma pharmaceutical Co., Ltd. Mangiferin and mangiferin calcium salts were suspended with 3% sodium carboxymethyl cellulose.
Normal female wistar rats (SPF, 3 months age, 180-200 g) were purchased from Hainan provincial peoples hospital experimental Animal Center. The animals were kept in a room temperature (25˜28° C.) with free access of food and water. A light-dark cycle (6 a.m and 6 p.m) was strictly enforced. High fat chow is composed of 55% basic chow, 2% protein, 16% fat, 27% white sugar.
Model: After the rats were fasted for 12 hours, the rats are injected 30-35 mg/kg streptozotocin (STZ) solution once by tail vein. STZ solution is prepared to 2% concentration with […], pH 4.4 citrate-sodium citrate buffer before use. The model rats were weighed, taked out tail vein blood, tested blood glucose when the Model is done after 14 days after fasting for 12 hours, then injected 20% glucose solution ([…]) by intraperitoneal, determined blood glucose in 0.5 h, 1 h, 2 h. The rats whose glucose tolerance is abnormal were brought into experiments. Normal wistar rats were fed normal chow, model rats were fed high fat chow.
Experimental group:normal wistar rats group (n=10); after Diabetes model is succeed, the rats were randomly divided into 7 groups: Diabetes model group (n=10); mangiferin groups (20, 40, 80 mg/kg, each 10 rats); mangiferin calcium groups (10, 20, 40 mg/kg, each 10 rats); Rosiglitazone Hydrochloride group [3 mg/kg, n=10]. Test samples or vehicle control was given orally for 8 weeks. Diabetes model group and normal group were given vehicle.
Determination of insulin sensitivity (Glucose infusion rate): Using glucose clamp technique, in accordance with Konglingdong'method ? KONG Ling-dong, ZHU Liang-zheng, SONG Ju-min, etc al. Intervention Effects of Tiaozhi Jiangtang Tablet on Insulin Resistance in Rats with Diabetes Mellitus Type 2.
Determination of plasma glucose and lipid: Rats were taken whole blood after killed, then serum was separated, determined plasma glucose (GLU), insulin (INS), triglycerides (TG) and free fatty acids (FFA).
as §1, with “GLU” for “GLU, TC, TG, HDL”, “TG” for “LDL”, “Ltd. Free fatty acids were determined using copper colorimetric determination. The kits for Determination of free fatty acids were purchased from Nanjing Jiancheng Bioengineering Institute.” for “Ltd.”
Statistics: The results have been calculated as mean±SD ( x±SD) and compareisons of the data have been done by t-test.

[3] = Stability of mangiferin calcium by preparation route; type: physicochemical; settings: mangiferin calcium made by reacting mangiferin with calcium hydroxide; changes much in 2 hours
Experimental: 3, The water solution of mangiferin calcium which mangiferin reacted with calcium hydroxide is unstable, it changes much in 2 hours. The reaction of mangiferin with other alkaline calcium like calcium bicarbonate or calcium acetate is difficult because they are alkalescent. The productivity is very low.
5, Mangiferin monosodium (or monopotassium) is come into being first; then mangiferin monosodium (or monopotassium) reacts with water-solubility calcium salt, and mangiferin calcium is come into being. The mangiferin calcium which is obtained by this method is stability, and the productivity is high.

## O=c1c2cc(O)c(O)cc2oc2cc([O-])c([C@@H]3O[C@H](CO)[C@@H](O)[C@H](O)[C@H]3O)c(O)c12.O=c1c2cc([O-])c(O)cc2oc2cc(O)c([C@@H]3O[C@H](CO)[C@@H](O)[C@H](O)[C@H]3O)c(O)c12.[Ca+2] [Mangiferin calcium, mangiferin calcium]
[1]; 50 mg powder in 50 ml distilled water, prepared per example 8
  dissolves in 30 minutes: can dissolve
[1]; 100 mg powder in 50 ml distilled water, prepared per example 8
  dissolves in 30 minutes: can not dissolve completely
[1]; distilled water, shaken 30 second every 5 minutes, 30 minutes
  water solubility: more than 1 mg/ml
[2]; rats, oral 100 mg/kg, compared with mangiferin
  bioavailability: better than mangiferin
[2]; rats, oral 100 mg/kg, serum
  Cmax: 48300 ± 600 ng/mL
  T1/2β: 61.4 ± 7.7 min
GK rats; 10 mg/kg orally for 30 days
  GLU: 24.06 ± 1.57 mmol/L
  HDL: 0.81 ± 0.07 mmol/L
  INS: 27.48 ± 8.70 μ IU/ml
  LDL: 1.26 ± 0.18 mmol/L
  TC: 2.43 ± 0.21 mmol/L
  TG: 1.79 ± 0.22 mmol/L
  improvement of TC, HDL and LDL in diabetic GK rats: significantly improves
GK rats; 20 mg/kg orally for 30 days
  GLU: 23.34 ± 1.67 mmol/L
  HDL: 0.80 ± 0.10 mmol/L
  INS: 20.45 ± 6.36 μ IU/ml
  LDL: 1.31 ± 0.10 mmol/L
  TC: 2.47 ± 0.08 mmol/L
  TG: 1.60 ± 0.41 mmol/L
  improvement of GLU, TC, TG, HDL and LDL and INS in diabetic GK rats: significantly improves
GK rats; 40 mg/kg orally for 30 days
  GLU: 23.17 ± 1.58 mmol/L
  HDL: 0.80 ± 0.09 mmol/L
  INS: 16.79 ± 5.37 μ IU/ml
  LDL: 1.37 ± 0.11 mmol/L
  TC: 2.49 ± 0.07 mmol/L
  TG: 1.57 ± 0.39 mmol/L
STZ rats; 10 mg/kg orally for 8 weeks
  improvement of GLU, TG, FFA, INS, Glucose infusion rate in diabetic rats: significantly improves
  Glucose infusion rate: 17.56 ± 3.45 mg/kg · min
  FFA: 1.54 ± 0.23 µmol/L
  GLU: 8.01 ± 0.32 mmol/L
  INS: 27.63 ± 3.46 μ IU/ml
  TG: 2.49 ± 0.18 mmol/L
STZ rats; 20 mg/kg orally for 8 weeks
  Glucose infusion rate: 24.37 ± 3.75 mg/kg · min
  FFA: 1.28 ± 0.14 µmol/L
  GLU: 7.31 ± 0.22 mmol/L
  INS: 23.57 ± 3.68 μ IU/ml
  TG: 1.93 ± 0.36 mmol/L
STZ rats; 40 mg/kg orally for 8 weeks
  Glucose infusion rate: 26.36 ± 3.58 mg/kg · min
  FFA: 1.13 ± 0.18 µmol/L
  GLU: 6.91 ± 2.02 mmol/L
  INS: 20.53 ± 4.42 μ IU/ml
  TG: 1.49 ± 0.28 mmol/L
[3]
  stability of water solution: unstable

## O=c1c2cc(O)c(O)cc2oc2cc(O)c(C3OC(CO)C(O)C(O)C3O)c(O)c12 (centres unmarked) [Mangiferin]
[1]; 5 mg powder in 50 ml distilled water
  dissolves in 30 minutes: can't be dissolved
[1]; water, thermodynamic from solid
  solubility at 30 min: < 100 µg/mL
[2]; rat, in vivo, po, 100 mg/kg
  AUC(0-inf): 31100 ng·h/mL
  Cmax: 14800 ± 500 ng/mL
  T1/2β: 45.7 ± 8.3 min
GK rats; 20 mg/kg orally for 30 days
  GLU: 19.65 ± 5.07 mmol/L
  HDL: 0.68 ± 0.12 mmol/L
  INS: 26.94 ± 4.89 μ IU/ml
  LDL: 1.56 ± 0.26 mmol/L
  TC: 2.54 ± 0.28 mmol/L
  TG: 1.69 ± 0.31 mmol/L
  improvement of GLU, TC, TG, HDL and LDL and INS in diabetic GK rats: does not significantly improve
GK rats; 40 mg/kg orally for 30 days
  GLU: 20.33 ± 4.09 mmol/L
  HDL: 0.75 ± 0.13 mmol/L
  INS: 24.44 ± 1.91 μ IU/ml
  LDL: 1.33 ± 0.41 mmol/L
  TC: 2.50 ± 0.45 mmol/L
  TG: 1.61 ± 0.22 mmol/L
  improvement of TG, HDL and LDL in diabetic GK rats: improves
GK rats; 80 mg/kg orally for 30 days
  GLU: 20.57 ± 4.13 mmol/L
  HDL: 0.78 ± 0.11 mmol/L
  INS: 16.68 ± 1.76 μ IU/ml
  LDL: 1.30 ± 0.38 mmol/L
  TC: 2.45 ± 0.31 mmol/L
  TG: 1.59 ± 0.16 mmol/L
STZ rats; 20 mg/kg orally for 8 weeks
  improvement of GLU, TG, FFA, INS, Glucose infusion rate in diabetic rats: does not significantly improve
  Glucose infusion rate: 15.75 ± 3.69 mg/kg · min
  FFA: 1.79 ± 0.24 µmol/L
  GLU: 10.56 ± 0.38 mmol/L
  INS: 33.42 ± 3.79 μ IU/ml
  TG: 3.42 ± 0.41 mmol/L
STZ rats; 40 mg/kg orally for 8 weeks
  Glucose infusion rate: 18.32 ± 3.89 mg/kg · min
  FFA: 1.56 ± 0.19 µmol/L
  GLU: 8.45 ± 0.23 mmol/L
  INS: 28.13 ± 3.74 μ IU/ml
  TG: 2.82 ± 0.22 mmol/L
STZ rats; 80 mg/kg orally for 8 weeks
  Glucose infusion rate: 23.65 ± 3.67 mg/kg · min
  FFA: 1.29 ± 0.34 µmol/L
  GLU: 7.05 ± 0.44 mmol/L
  INS: 24.35 ± 3.46 μ IU/ml
  TG: 1.82 ± 0.32 mmol/L

## CN(CCOc1ccc(CC2SC(=O)NC2=O)cc1)c1ccccn1 (centres unmarked) [Rosiglitazone, Rosiglitazone Hydrochloride]
GK rats; 3 mg/kg orally for 30 days
  GLU: 24.38 ± 2.26 mmol/L
  HDL: 0.78 ± 0.07 mmol/L
  INS: 17.58 ± 9.80 μ IU/ml
  LDL: 1.37 ± 0.19 mmol/L
  TC: 2.40 ± 0.17 mmol/L
  TG: 1.48 ± 0.12 mmol/L
STZ rats; 3 mg/kg orally for 8 weeks
  Glucose infusion rate: 24.75 ± 3.69 mg/kg · min
  FFA: 1.25 ± 0.13 µmol/L
  GLU: 7.49 ± 2.18 mmol/L
  INS: 19.87 ± 4.21 μ IU/ml
  TG: 1.44 ± 0.16 mmol/L
